Laboratory results reported in publication PMC11249646, “Small-Molecule Disruptors of the Interaction between Calcium- and Integrin-Binding Protein 1 and Integrin αIIbβ3 as Novel Antiplatelet Agents” (ACS Pharmacology & Translational Science, 2024).
Like-named read-outs stand apart in the source and are kept apart here.

Key:
Format in all cases: binding
[1] = biological target: T1, CIB1 and αIIb interaction (GST-CIB1 : F-αIIb peptide) (Homo sapiens, UniProt Q99828); assay: FP assay, 384-well format (screen); parameters: 384-well SCREEN Efficacy (%): concentration or dose not given beside the values; settings: F-αIIb peptide; for 384-well SCREEN Confirm?: YES/NO; for IC50: read-out: 384-well SCREEN IC50
T1 construct: made in house; host or cells: BL-21 plus RIL cells (E. coli)
T1 sequence (Q99828 1-191): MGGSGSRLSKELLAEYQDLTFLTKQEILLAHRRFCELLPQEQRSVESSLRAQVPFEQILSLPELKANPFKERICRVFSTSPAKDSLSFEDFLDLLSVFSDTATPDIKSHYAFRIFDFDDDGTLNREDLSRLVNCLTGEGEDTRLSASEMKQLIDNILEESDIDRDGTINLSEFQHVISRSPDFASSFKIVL

[2] = biological target: T2, GST-CIB1 : F-scrambled peptide (Homo sapiens, UniProt Q99828); assay: FP scrambled-peptide counter screen, 384-well format; settings: F-scrambled peptide; for 384-well COUNTERSCREEN Confirm?: *: Curve in opposite direction; for IC50: read-out: 384-well COUNTERSCREEN IC50
T2 construct: made in house; host or cells: BL-21 plus RIL cells (E. coli)
T2 sequence (Q99828 1-191): T1 sequence (Q99828 1-191)

[3] = biological target: T3, CIB1 and αIIb interaction (CIB1-GST : F-αIIb peptide) (Homo sapiens, UniProt Q99828); assay: FP assay, 1536-well qHTS format (primary and confirmatory screen); settings: for CONFIRMATORY SCREEN Confirm?: YES/NO call; for CONFIRMATORY SCREEN Efficacy (%) / Efficacy (%): negative = inhibition; for Curve Class: one class per curve where COUNT > 1
T3 construct: made in house; host or cells: BL-21 plus RIL cells (E. coli)
T3 sequence (Q99828 1-191): T1 sequence (Q99828 1-191)

[4] = biological target: T2, GST-CIB1 : F-scrambled peptide; assay: FP scrambled-peptide counter screen, 1536-well format; settings: for COUNTERSCREEN Confirm?: YES/NO call
[5] = confirmatory screen, qHTS curve class, negative sign = inhibitory curve
[6] = confirmatory screen, read-out: CONFIRMATORY SCREEN IC50
[7] = scrambled-peptide counterscreen
[8] = qHTS FP screen hits, Table S2, read-out: IC50
[9] = qHTS FP screen hits, Table S2, negative sign = inhibitory curve
[10] = scrambled-peptide counterscreen, qHTS curve class

| SMILES | 384-well SCREEN Efficacy (%) [1] [%] | 384-well SCREEN Confirm? [1] | IC50 [1] [µM] | 384-well COUNTERSCREEN Efficacy (%) [2] [%] | 384-well COUNTERSCREEN Confirm? [2] | IC50 [2] [µM] | CONFIRMATORY SCREEN Confirm? ([3]; confirmatory screen) | CONFIRMATORY SCREEN Curve Class [3, 5] | CONFIRMATORY SCREEN Efficacy (%) ([3]; confirmatory screen) | IC50 [3, 6] [µM] | COUNTERSCREEN Efficacy (%) [4, 7] [%] | COUNTERSCREEN Confirm? [4, 7] | Efficacy (%) ([3]; qHTS FP screen hits, Table S2) | IC50 [3, 8] [µM] | Curve Class [3, 9] | COUNTERSCREEN Curve Class [4, 10] | further results |
| --- | --- | --- | --- | --- | --- | --- | --- | --- | --- | --- | --- | --- | --- | --- | --- | --- | --- |
| CCc1oc2ccccc2c1C(=O)c1cc(Br)c(O)c(Br)c1 [NCGC00013895-08] | 39 | YES | 25.1 | 60 | YES | 12.6 | YES | -1.2 | -66 | 22.4 | 52 | YES | – | – | – | – | IC50 ([4]; scrambled-peptide counterscreen, read-out: COUNTERSCREEN IC50): 20 µM |
| Cl.O=C1c2c(O)ccc(O)c2C(=O)c2c(NCCNCCO)ccc(NCCNCCO)c21 [NCGC00015693-04] | 80 | YES | 4.1 | 75 | – | 5.8 | – | – | – | – | – | – | -85 | 25.2 | – | – | Efficacy (%) (confirmatory screen) ([3]; confirmatory screen): -112%; Confirm? (confirmatory screen) ([3]; confirmatory screen, YES/NO): YES; Curve Class (confirmatory screen) [3, 5]: -1.1; IC50 ([3]; confirmatory screen, read-out: IC50 [μM] (confirmatory screen)): 20 µM; Efficacy (%) (counterscreen) ([4]; counterscreen): -125%; Curve Class (counterscreen) ([4]; counterscreen, qHTS curve class, negative sign = inhibitory curve): -1.1; IC50 ([4]; counterscreen, read-out: IC50 [μM] (counterscreen)): 20 µM |
| CC[C@@H](CO)NC(=O)[C@@H]1C=C2c3cccc4[nH]cc(c34)C[C@H]2N(C)C1.O=C(O)/C=C\C(=O)O [NCGC00017258-05] | 80 | YES | 60 | 80 | – | – | YES | -2.4 | -34 | – | -16 | YES | -131 | – | -2.1 | 4 | – |
| Cc1ccc(C)n1-c1cccc(C(=O)O)c1.O=C(O)C(F)(F)F [NCGC00060597-02] | 30 | YES | 17.7 | 24 | YES | > 120 | YES | -1.2 | -42 | 8.9 | -11 | YES | – | – | – | 4 | – |
| C=CCNc1oc(-c2cccc3ccccc23)nc1C#N.O=C(O)C(F)(F)F [NCGC00068824-04] | 71 | YES | 4 | 51 | – | 4.5 | YES | -1.2 | -78 | 15.8 | -19 | YES | -38 | 17.8 | -1.2 | 4 | – |
